According to patent publication US7763615B2, “Ecteinascidin analogs for use as antitumour agents” (priority 2001, dated 2010):
≈ marks a conversion by molar mass, not a printed value.

Assays:
(HEPG2) = conditions: human, 24 h, 30 μM
CYP3A4 = CYP3A4 (Homo sapiens, UniProt P08684); assay: in vitro; conditions: CYP3A4 (% inhibition)
CYP2D6 = CYP2D6 (Homo sapiens, UniProt P10635); assay: in vitro; conditions: CYP2D6 (% inhibition)
Experimental: For CYP2D6 inhibition assay, the compound are tested at 10 μM in duplicate with a 0.25% final concentration of both methanol and acetonitrile in presence of the fluorescent substrate AMMC (3-[2-N,N-diethyl-N-methylammonium)ethyl]-7-methoxy-4-methylcoumarin) at the concentration of 1.5 μM). The conversion of the AMMC in AHMC (3-[2-N,N-diethyl-N-methylammonium)ethyl]-7-hydroxy-4-methylcoumarin) is determined spectrofluorimetry after incubation with the enzyme during 450 min at 37° C.
For both assays, the fluorescent intensity measured at t=0 is subtracted from that measured after the appropriate incubation time. The ratio of signal-to-noise is calculated by comparing the fluorescence in incubations containing the test compound to the control samples containing the same solvent vehicle. The percent of control activity is calculated and reported as percent inhibition.

physchem [1] = conditions: pH 7.4, log D n-Octanol-Dulbecco's PBS pH 7.4
IGROV-ET = assay: cells; assay type: cell-based; conditions: for GI50 / CC50: Homo sapiens; for GI50 / TGI: IGROV-ET; for CC50: read-out: LC50, IGROV-ET
In short: (§1)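 Seeding density 5×10^3 cells/well; attachment 18 h in drug-free medium; exposure 48 h, 10 to 10^−8 μg/ml. Fixation cold TCA 60 min at 4° C, SRB 10 min, absorbance 490 nm.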

DU145 = assay: cells; assay type: cell-based; conditions: for TGI: DU145; for GI50 / CC50: Homo sapiens; for GI50: DU-145, DU145; for CC50: DU-145, read-out: LC50, DU145
In short: as §1

HT29 = assay: cells; assay type: cell-based; conditions: for TGI: HT29; for GI50 / CC50: Homo sapiens; for GI50: HT-29, HT29; for CC50: HT-29, read-out: LC50, HT29
In short: as §1

LNCAP = assay: cells; assay type: cell-based; conditions: for GI50 / CC50: Homo sapiens, LNCaP; for CC50: read-out: LC50, LNCAP; for TGI: LNCAP
In short: as §1

LOVO = assay: cells; assay type: cell-based; conditions: for GI50 / CC50: Homo sapiens, LoVo; for CC50: read-out: LC50, LOVO; for TGI: LOVO
In short: as §1

LOVO-DOX = assay: cells; assay type: cell-based; conditions: for GI50 / CC50: Homo sapiens; for GI50 / TGI: LOVO-DOX; for CC50: read-out: LC50, LOVO-DOX
In short: as §1

K562 = assay: cells; assay type: cell-based; conditions: for GI50 / CC50: Homo sapiens; for GI50: K562, K562; for CC50: K562, read-out: LC50, K562; for TGI: K562
In short: as §1

SK-BR3 = assay: cells; assay type: cell-based; conditions: for GI50 / CC50: Homo sapiens; for GI50: SK-BR-3, SK-BR3; for CC50: SK-BR-3, read-out: LC50, SK-BR3; for TGI: SK-BR3
In short: as §1

MEL-28 = assay: cells; assay type: cell-based; conditions: for GI50 / CC50: Homo sapiens; for GI50: SK-MEL-28, MEL-28; for CC50: SK-MEL-28, read-out: LC50, MEL-28; for TGI: MEL-28
In short: as §1

A549 = assay: cells; assay type: cell-based; conditions: for TGI: A549; for GI50 / CC50: Homo sapiens; for GI50: A549, A549, read-out: GI50; for CC50: A549, read-out: LC50, A549
In short: as §1

PANC-1 = assay: cells; assay type: cell-based; conditions: for GI50 / CC50: Homo sapiens; for GI50: PANC-1, PANC-1; for CC50: PANC-1, read-out: LC50, PANC-1; for TGI: PANC-1
In short: as §1

IGROV = assay: cells; assay type: cell-based; conditions: for GI50 / CC50: Homo sapiens; for CC50: read-out: LC50, IGROV
In short: as §1

[2] = tested on: H9c2 (2-1), normal rat cardiac muscle cells; conditions: 24 h
Experimental: (§2) In order to assess the cytotoxicity of the drugs to normal cells, we used 96 well plates plated at a density of 5000 cells per well (except for the FDC-P1 which were plated at 12,000 cells per well) with normal cell lines (ATCC, Table 1) maintained as per the directions of the ATCC: AML-12, normal mouse liver cells; NRK-52E, normal rat kidney cells; L8, normal rat skeletal muscle cells; FDC-P1, normal mouse myelogeous stem cells; and H9c2 (2-1), normal rat cardiac muscle cells. The cells in each plate were permitted to settle overnight before adding the test drug.
(§3) To each well (100 μl medium) 10 μl of drug in media was added at varying concentrations (1×10-10-0.01 mg/ml final concentration) and further incubated overnight at 37° C. with 5% CO2. After 24 h the following assays were performed. All experiments were repeated at least 3 times and were assayed in duplicate.
(§4) MTS assay (CellTiter 96 aqueous) was performed according to the manufacturer's (Promega) directions (for all cell types). Cell viability (mitochondrial activity) is determined via enzymatic conversion of the formazan substrate.

H-MEC-1 = assay: Inhibition of cells growth by colorimetric assay (SRB), H-MEC-1; assay type: cell-based; conditions: for TGI: H-MEC-1; for GI50 / CC50: Homo sapiens; for GI50: HMEC-1, H-MEC-1; for CC50: HMEC-1, read-out: LC50, H-MEC-1
In short: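 Cells plated at 5×10^3 per well; 18 h later, test samples added across 10 to 10^−8 μg/ml; incubation continued 48 h at 37° C, 5% CO2. Cells then fixed with cold TCA, stained with SRB, dye solubilised in Tris, and optical density measured at 490 nm.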

[3] = tested on: L8, normal rat skeletal muscle cells; conditions: 24 h
[4] = tested on: FDC-P1, normal mouse myelogeous stem cells; conditions: 24 h
Experimental: as §2, §3, §4

[5] = tested on: AML-12, normal mouse liver cells; conditions: 24 h
SK-OV3 = assay: Inhibition of cells growth by colorimetric assay (SRB), SK-OV3; assay type: cell-based; conditions: for GI50 / CC50: Homo sapiens; for GI50: SK-OV-3, SK-OV3; for CC50: SK-OV-3, read-out: LC50, SK-OV3; for TGI: SK-OV3
In short: as §1

physchem [6] = conditions: pH 7.4, aqueous buffer, Solubility Dulbecco's PBS pH 7.4
[7] = s9, 60 min, 1 μM
[8] = tested on: NRK-52E, normal rat kidney cells; conditions: 24 h
Experimental: as §2, §3, §4

CYP2D6, sequence (P10635 whole entry): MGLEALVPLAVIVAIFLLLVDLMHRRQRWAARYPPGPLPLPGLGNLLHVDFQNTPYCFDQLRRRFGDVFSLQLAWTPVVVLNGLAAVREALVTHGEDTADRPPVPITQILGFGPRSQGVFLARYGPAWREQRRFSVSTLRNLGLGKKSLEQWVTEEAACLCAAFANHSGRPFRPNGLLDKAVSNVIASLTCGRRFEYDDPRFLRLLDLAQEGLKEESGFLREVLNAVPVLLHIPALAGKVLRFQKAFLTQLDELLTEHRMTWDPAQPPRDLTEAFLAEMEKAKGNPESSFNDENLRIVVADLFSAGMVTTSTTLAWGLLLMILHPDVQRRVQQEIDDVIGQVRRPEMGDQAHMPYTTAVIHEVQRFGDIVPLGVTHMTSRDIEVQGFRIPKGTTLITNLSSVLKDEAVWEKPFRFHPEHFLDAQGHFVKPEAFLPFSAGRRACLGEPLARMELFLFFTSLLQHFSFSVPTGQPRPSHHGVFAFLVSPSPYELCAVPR
CYP3A4, sequence (P08684 whole entry): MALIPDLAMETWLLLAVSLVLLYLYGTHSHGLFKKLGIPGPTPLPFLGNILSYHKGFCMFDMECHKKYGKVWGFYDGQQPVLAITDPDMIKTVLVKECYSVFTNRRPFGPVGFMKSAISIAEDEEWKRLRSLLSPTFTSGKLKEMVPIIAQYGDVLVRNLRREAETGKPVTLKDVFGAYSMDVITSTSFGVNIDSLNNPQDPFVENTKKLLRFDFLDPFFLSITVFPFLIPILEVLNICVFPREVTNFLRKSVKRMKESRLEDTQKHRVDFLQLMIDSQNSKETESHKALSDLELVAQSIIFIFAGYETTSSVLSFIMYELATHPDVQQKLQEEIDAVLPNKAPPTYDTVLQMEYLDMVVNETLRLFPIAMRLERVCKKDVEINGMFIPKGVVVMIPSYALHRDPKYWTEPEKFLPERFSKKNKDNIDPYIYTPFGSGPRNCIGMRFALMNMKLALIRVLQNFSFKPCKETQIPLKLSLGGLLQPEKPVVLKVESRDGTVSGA

Which “Cell Viability (% inhibition)” value ((HEPG2)) does the source give for `COc1c(C)cc2c(c1OC(=O)OC(C)(C)C)[C@@H]1C3[C@@H]4SC[C@]5(NCCc6c5[nH]c5ccccc65)C(=O)COC[C@@H](c5c6c(c(C)c(OC(C)=O)c54)OCO6)N3[C@@H](O)[C@H](C2)N1C` (stereo partly shown) [Compound 46] here?
The value was 33 % inhibition.

What about the inhibition at 30 min, 10 µM (CYP3A4) of the same compound?
The inhibition at 30 min, 10 µM was 60%.

What about the inhibition at 450 min, 10 µM (CYP2D6) of the same compound?
Its inhibition at 450 min, 10 µM is 16%.

What about the logD at 60 min (physchem [1]) of the same compound?
Its logD at 60 min is > 5.

And the GI50 (IGROV-ET)?
The GI50 was 49.5 nM.

What about the CC50 (IGROV-ET) of the same compound?
Its CC50 is 7350 nM.

What about the TGI (IGROV-ET) of the same compound?
The TGI was 1.29E−07.

And the TGI (DU145)?
Its TGI is 4.61E−08.

And the GI50 (DU145)?
Its GI50 is 6.48 nM.

And the CC50 (DU145)?
Its CC50 is ≥ 11700 nM.

And the TGI (HT29)?
The TGI was 1.22E−06.

What about the GI50 (HT29) of the same compound?
Its GI50 is 44.4 nM.

What about the CC50 (HT29) of the same compound?
The CC50 was ≥ 11700 nM.

And the GI50 (LNCAP)?
The GI50 was 0.117 nM.

And the CC50 (LNCAP)?
Its CC50 is 17.5 nM.

And the TGI (LNCAP)?
The TGI was 3.25E−09.

And the GI50 (LOVO)?
The GI50 was 15.6 nM.

What about the CC50 (LOVO) of the same compound?
The CC50 was ≥ 11700 nM.

And the TGI (LOVO)?
Its TGI is 5.70E−08.

And the GI50 (LOVO-DOX)?
Its GI50 is 38.2 nM.

What about the CC50 (LOVO-DOX) of the same compound?
The CC50 was ≥ 11700 nM.

And the TGI (LOVO-DOX)?
The TGI was 2.41E−07.

What about the GI50 (K562) of the same compound?
The GI50 was 1220 nM.

What about the CC50 (K562) of the same compound?
Its CC50 is 3380 nM.

What about the TGI (K562) of the same compound?
The TGI was 2.02E−06.

And the GI50 (SK-BR3)?
Its GI50 is 16.3 nM.

And the CC50 (SK-BR3)?
The CC50 was 412 nM.

What about the TGI (SK-BR3) of the same compound?
Its TGI is 5.84E−08.

And the GI50 (MEL-28)?
Its GI50 is 12.4 nM.

And the CC50 (MEL-28)?
Its CC50 is 153 nM.

What about the TGI (MEL-28) of the same compound?
The TGI was 4.07E−08.

And the TGI (A549)?
The TGI was 6.78E−08.

What about the GI50 (A549) of the same compound?
Its GI50 is 33.3 nM.

What about the CC50 (A549) of the same compound?
The CC50 was 335 nM.

What about the GI50 (PANC-1) of the same compound?
Its GI50 is 41.1 nM.

And the CC50 (PANC-1)?
The CC50 was ≥ 11700 nM.

What about the TGI (PANC-1) of the same compound?
The TGI was 2.58E−07.

And the TGI (IGROV)?
The TGI was 5.40E−08.

What about the GI50 (IGROV) of the same compound?
Its GI50 is 23.2 nM.

What about the CC50 (IGROV) of the same compound?
The CC50 was 192 nM.

What about the Heart [2] of the same compound?
The Heart was 3.51E−08.

What about the TGI (H-MEC-1) of the same compound?
Its TGI is 1.17E−06.

What about the GI50 (H-MEC-1) of the same compound?
Its GI50 is 26 nM.

And the CC50 (H-MEC-1)?
The CC50 was ≥ 11700 nM.

What about the Skeletal [3] of the same compound?
Its Skeletal is 2.16E−07.

What about the Myelo [4] of the same compound?
Its Myelo is 1.17E−07.

And the Liver [5]?
Its Liver is 5.01E−08.

What about the GI50 (SK-OV3) of the same compound?
The GI50 was 30.6 nM.

What about the CC50 (SK-OV3) of the same compound?
Its CC50 is ≥ 11700 nM.

And the TGI (SK-OV3)?
The TGI was 2.00E−06.

What about the solubility (physchem [6]) of the same compound?
The solubility was 1.37 µM (≈ 1.19 µg/mL).

And the “Human Liver S9 Metabolic Stability (% remaining)” value [7]?
The value was 7 % remaining.

What about the Kidney [8] of the same compound?
The Kidney was 4.01E−08.

Which results are given for `C=COC(=O)Oc1c(OC)c(C)cc2c1[C@@H]1C3[C@@H]4SC[C@]5(NCCc6c5[nH]c5ccccc65)C(=O)COC[C@@H](c5c6c(c(C)c(OC(C)=O)c54)OCO6)N3[C@@H](O)[C@H](C2)N1C` (stereo partly shown) [Compound 47]?
Cell Viability (% inhibition) ((HEPG2)): 18 % inhibition; inhibition at 30 min, 10 µM (CYP3A4): 38%; inhibition at 450 min, 10 µM (CYP2D6): 10%; logD at 60 min (physchem [1]): > 5; GI50 (IGROV-ET): 69.7 nM; CC50 (IGROV-ET): ≥ 12100 nM; TGI (IGROV-ET): 3.61E−06; TGI (DU145): 2.06E−08; GI50 (DU145): 5.46 nM; CC50 (DU145): ≥ 12100 nM; TGI (HT29): 1.21E−05; GI50 (HT29): 38.8 nM; CC50 (HT29): ≥ 12100 nM; GI50 (LNCAP): 2.65 nM; CC50 (LNCAP): 9.76 nM; TGI (LNCAP): 5.08E−09; GI50 (LOVO): 6.26 nM; CC50 (LOVO): ≥ 12100 nM; TGI (LOVO): 4.64E−08; GI50 (LOVO-DOX): 40.7 nM; CC50 (LOVO-DOX): ≥ 12100 nM; TGI (LOVO-DOX): 1.17E−07; GI50 (K562): 13.1 nM; CC50 (K562): 6320 nM; TGI (K562): 2.11E−06; GI50 (SK-BR3): 7.56 nM; CC50 (SK-BR3): 693 nM; TGI (SK-BR3): 3.47E−08; GI50 (MEL-28): 4.26 nM; CC50 (MEL-28): 207 nM; TGI (MEL-28): 1.00E−08; TGI (A549): 7.50E−08; GI50 (A549): 33.3 nM; CC50 (A549): 1330 nM; GI50 (PANC-1): 42.4 nM; CC50 (PANC-1): ≥ 12100 nM; TGI (PANC-1): 1.70E−06; TGI (IGROV): 4.07E−08; GI50 (IGROV): 10.6 nM; CC50 (IGROV): 909 nM; Heart [2]: 7.36E−08; TGI (H-MEC-1): 1.50E−07; GI50 (H-MEC-1): 6.78 nM; CC50 (H-MEC-1): ≥ 12100 nM; Skeletal [3]: 2.57E−08; Myelo [4]: 6.76E−08; Liver [5]: 3.04E−08; GI50 (SK-OV3): 8.98 nM; CC50 (SK-OV3): ≥ 12100 nM; TGI (SK-OV3): 2.88E−07; solubility (physchem [6]): < 1 µM; Human Liver S9 Metabolic Stability (% remaining) [7]: 5 % remaining; Kidney [8]: 3.15E−08
